{"source": "patent US20260048036A1", "about": "“CRYSTALLINE FORMS OF A GLUCOSYLCERAMIDE SYNTHASE INHIBITOR AND USES THEREOF” (ACELINK THERAPEUTICS, INC., priority 2022, published 2026)", "key": {"[1]": {"experiment": "Solid state stability, 1 week (HPLC purity, color, XRPD)", "conditions": "for Bulk (XRPD) / Purity, Bulk (HPLC): Solid state, 1 week; for Purity, Bulk (HPLC): initial purity 99.8%"}, "[2]": {"target": "T1, Glucosylceramide synthase (GCS) (Rattus norvegicus, UniProt Q9R0E0)", "T1 construct": "The MDCK, K-562, and L6 cell lines all endogenously express GCS enzyme; host or cells: L6 rat skeletal muscle cell lysate", "T1 sequence (Q9R0E0 1-394)": "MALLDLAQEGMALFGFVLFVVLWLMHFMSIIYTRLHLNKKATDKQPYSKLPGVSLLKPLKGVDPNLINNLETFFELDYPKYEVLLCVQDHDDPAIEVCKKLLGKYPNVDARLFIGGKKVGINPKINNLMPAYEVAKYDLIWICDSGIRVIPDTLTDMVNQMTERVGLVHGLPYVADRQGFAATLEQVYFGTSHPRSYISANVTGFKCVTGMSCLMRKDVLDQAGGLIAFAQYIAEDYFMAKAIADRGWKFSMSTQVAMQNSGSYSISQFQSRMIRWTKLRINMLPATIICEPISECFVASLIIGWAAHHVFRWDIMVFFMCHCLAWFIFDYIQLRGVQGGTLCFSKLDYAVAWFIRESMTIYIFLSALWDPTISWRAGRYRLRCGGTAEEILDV", "experiment": "GCS enzymatic assay with L6 cell lysate", "format": "biochemical", "conditions": "0.1 μM, N = 1, N = 2", "from_the_text": "In this study, the inventors developed a reliable method to monitor GCS catalytic activity using the fluorescent substrate, C6-NBD-ceramide. The reaction product, C6-NBD-glucosylceramide, could then be detected and quantified by LC-MS/MS. The inventors used this method to test and validate the effect of various GCS inhibitors on GCS enzyme activity from different species.\nThe MDCK, K-562, and L6 cell lines all endogenously express GCS enzyme and were used to test the effect of various GCS inhibitors on enzyme originating from different species. The GCS enzyme activity was detected by using the fluorescent substrate, C6-NBD-ceramide, and monitoring the formation of the fluorescent reaction product, C6-NBD-glucosylceramide. First, the inventors used cell lysate derived from a canine kidney cell line (MDCK, ATCC Cat #CCL-34™) as the source of GCS and tested the inhibitory activity of several control and test compounds. The inventors then used the human leukemia K-562 cell line (ATCC Cat #[…]) to test the effect of these GCS inhibitors on intact living cells. Finally, a cell lysate derived from a rat skeletal muscle cell line, L6 (ATCC Cat #[…]), was used to test the effect of these GCS inhibitors on rodent GCS enzyme.\nGCS activity was evaluated using a GCS enzyme assay derived from MDCK or L6 cell lysates.\nMDCK or L6 cell lysates were prepared using M-PER in the presence of a protease inhibitor cocktail. Each 100 mm dish (100% confluent) was lysed with 250 μl of M-PER containing protease inhibitors. Protein concentration was determined using Pierce BCA protein assay kit.\nSixty micrograms of MDCK lysate was incubated with various concentrations of compounds (0.00001 μM-1 μM) in 100 mM Tris buffer (pH 7.5) containing 10 mM MgCl2, 1 mM dithiothreitol, 1 mM EGTA, 2 mM NAD, 100 μM UDP-glucose, 10 μM C6-NBD-ceramide with 35 μM dioleoylphosphatidylcholine/5 μM sulfatide in a final reaction volume of 100 μl at 37° C. for 1 hour. The final concentration of DMSO was 0.1% in both compound treated and DMSO only treated samples. Each individual reaction was terminated with 11 volumes of methanol:acetonitrile (6:5; containing 200 ng/ml Tolbutamide as internal control). After sufficient mixing, reactions were centrifuged at 2000 rpm for 10 mins, supernatant was injected into the LC-MS/MS for analysis.\nFor the assay with L6 cell lysate, different amounts of L6 cell lysate were used.\nThe quantitative analysis of C6-NBD-glucosylceramide was performed on a Shimadzu ultra-fast liquid chromatography coupled with API 4000 mass spectrometer. Analyst 1.5 software packages were used to control the LC-MS/MS system, as well as for data acquisition and processing.\nThe C6-NBD-glucosylceramide reading was normalized first by dividing the peak area of C6-NBD-glucosylceramide with the peak area of the internal standard, and then the amount was calculated according to the standard curve generated in the same assay run. For the cell based assay results, the amount of C6-NBD-glucosylceramide was also normalized by the protein concentration of the cell samples.\nTo confirm the inhibitory activity of test compounds on GCS from different species, cells from rat were used. First, the presence of GCS activity was verified using various amounts of L6 cell lysate (FIG. 34, Table 26)."}}, "note": "Several values for one entry are separate records, joined by “and”; a condition that tells them apart may be missing. Equal values may be shown once."}
{"compound": "O=C(N[C@H](CN1CCCC1)[C@H](O)c1ccc(OC2CC2)c(Cl)c1)/C(=N/O)c1ccc2cc(Cl)ccc2c1", "note": "[Crystalline Form A of Compound 1]", "values": [{"measurement": "chemical and physical stability", "setting": "[1]; 25° C./92% RH open container, 40° C./75% RH open container, 60° C. tight container, one week", "value": "chemically and physically stable"}, {"measurement": "Bulk (XRPD)", "setting": "[1]; 25° C./92% RH, open container", "value": "No form change"}, {"measurement": "Purity, Bulk (HPLC)", "setting": "[1]; 25° C./92% RH, open container", "value": 99.8, "unit": "%"}, {"measurement": "Bulk (XRPD)", "setting": "[1]; 40° C./75% RH, open container", "value": "No form change"}, {"measurement": "Purity, Bulk (HPLC)", "setting": "[1]; 40° C./75% RH, open container", "value": 99.8, "unit": "%"}, {"measurement": "Bulk (XRPD)", "setting": "[1]; 60° C., tight container", "value": "No form change"}, {"measurement": "Purity, Bulk (HPLC)", "setting": "[1]; 60° C., tight container", "value": 99.8, "unit": "%"}, {"measurement": "C6-NBD-Ceramide (Normalized to internal control)", "setting": "[2]; 30 μg L6 lysate/reaction", "value": "6.69 and 6.31"}, {"measurement": "C6-NBD-Glucosylceramide Concentration", "setting": "[2]; 30 μg L6 lysate/reaction", "value": "9.73 nM and 10.5 nM"}, {"measurement": "Inhibition", "setting": "[2]; 30 μg L6 lysate/reaction", "value": "98.57% and 98.45%"}, {"measurement": "inhibition at 0.1 µM", "setting": "[2]; 30 μg L6 lysate/reaction", "value": "> 98", "unit": "%"}, {"measurement": "C6-NBD-Ceramide (Normalized to internal control)", "setting": "[2]; 60 μg L6 lysate/reaction", "value": "5.87 and 6.17"}, {"measurement": "C6-NBD-Glucosylceramide Concentration", "setting": "[2]; 60 μg L6 lysate/reaction", "value": "22.5 nM and 26.3 nM"}, {"measurement": "Inhibition", "setting": "[2]; 60 μg L6 lysate/reaction", "value": 97.64, "unit": "%"}, {"measurement": "inhibition at 0.1 µM", "setting": "[2]; 60 μg L6 lysate/reaction", "value": 98, "unit": "%"}, {"measurement": "C6-NBD-Ceramide (Normalized to internal control)", "setting": "[2]; 120 μg L6 lysate/reaction", "value": "6.09 and 6.11"}, {"measurement": "C6-NBD-Glucosylceramide Concentration", "setting": "[2]; 120 μg L6 lysate/reaction", "value": "45.8 nM and 44.7 nM"}, {"measurement": "Inhibition", "setting": "[2]; 120 μg L6 lysate/reaction", "value": 96.74, "unit": "%"}, {"measurement": "inhibition at 0.1 µM", "setting": "[2]; 120 μg L6 lysate/reaction", "value": 96.7, "unit": "%"}, {"measurement": "C6-NBD-Ceramide (Normalized to internal control)", "setting": "[2]; 180 μg L6 lysate/reaction", "value": "5.15 and 5.12"}, {"measurement": "C6-NBD-Glucosylceramide Concentration", "setting": "[2]; 180 μg L6 lysate/reaction", "value": "54.7 nM and 59.0 nM"}, {"measurement": "Inhibition", "setting": "[2]; 180 μg L6 lysate/reaction", "value": 95.55, "unit": "%"}, {"measurement": "inhibition at 0.1 µM", "setting": "[2]; 180 μg L6 lysate/reaction", "value": 95.9, "unit": "%"}, {"measurement": "C6-NBD-Ceramide (Normalized to internal control)", "setting": "[2]; 240 μg L6 lysate/reaction", "value": "5.72 and 5.61"}, {"measurement": "C6-NBD-Glucosylceramide Concentration", "setting": "[2]; 240 μg L6 lysate/reaction", "value": "76.9 nM and 78.2 nM"}, {"measurement": "Inhibition", "setting": "[2]; 240 μg L6 lysate/reaction", "value": 93.51, "unit": "%"}, {"measurement": "inhibition at 0.1 µM", "setting": "[2]; 240 μg L6 lysate/reaction", "value": 93.6, "unit": "%"}]}
